Laboratory results as given in patent US11541107B2, “Peptides and T cells for use in immunotherapeutic treatment of various cancers” (Immatics Biotechnologies GmbH, priority 2015, dated 2023).

Tested on: HLA-A*24
Assay: MHC binding assay, UV-ligand exchange with beta2m ELISA, HLA-A*24
Design: species or system human
Details: binding to HLA-A*24 ranged by peptide exchange yield (UV-ligand exchange, beta2m ELISA)
Source text: Candidate peptides for T cell based therapies according to the present invention were further tested for their MHC binding capacity (affinity). The individual peptide-MHC complexes were produced by UV-ligand exchange, where a UV-sensitive peptide is cleaved upon UV-irradiation, and exchanged with the peptide of interest as analyzed. Only peptide candidates that can effectively bind and stabilize the peptide-receptive MHC molecules prevent dissociation of the MHC complexes. To determine the yield of the exchange reaction, an ELISA was performed based on the detection of the light chain (ß2 m) of stabilized MHC complexes. The assay was performed as generally described in Rodenko et al. (Rodenko et al., 2006).
96 well MAXISorp plates (NUNC) were coated over night with 2 ug/ml streptavidin in PBS at room temperature, washed 4× and blocked for 1 h at 37° C. in 2% BSA containing blocking buffer. […] Peptide-MHC monomers of the UV-exchange reaction were diluted 100 fold in blocking buffer. Samples were incubated for 1 h at 37° C., washed four times, incubated with 2 ug/ml HRP conjugated anti-β2 m for 1h at 37° C., washed again and detected with TMB solution that is stopped with […]. Absorption was measured at 450 nm. Candidate peptides that show a high exchange yield (preferably higher than 50%, most preferred higher than 75%) are generally preferred for a generation and production of antibodies or fragments thereof, and/or T cell receptors or fragments thereof, as they show sufficient avidity to the MHC molecules and prevent dissociation of the MHC complexes.

Peptide exchange	Substance
+++ (50%-75% = +++)	168 (RYLEAALRL; listed as Homo sapiens) [compound 168]
++++ (>=75% = ++++)	187 (AYAANVHYL; listed as Homo sapiens) [compound 187]
+++ (50%-75% = +++)	133 (KYLEDMKTYF; listed as Homo sapiens) [compound 133]
+++ (50%-75% = +++)	256 (VFGKSAYLF; listed as Homo sapiens) [compound 256]
++++ (>=75% = ++++)	305 (NYENKQYLF; listed as Homo sapiens) [compound 305]
+++ (50%-75% = +++)	192 (RYSTFSEIF; listed as Homo sapiens) [compound 192]
+++ (50%-75% = +++)	291 (YYLGSGRETF; listed as Homo sapiens) [compound 291]
++ (20%-49% = ++)	212 (SYAPPSEDLF; listed as Homo sapiens) [compound 212]
+++ (50%-75% = +++)	240 (YYFFVQEKI; listed as Homo sapiens) [compound 240]
+++ (50%-75% = +++)	200 (VFIHHLPQF; listed as Homo sapiens) [compound 200]
+++ (50%-75% = +++)	277 (FYTFPFQQL; listed as Homo sapiens) [compound 277]
+++ (50%-75% = +++)	136 (IYPEWPVVFF; listed as Homo sapiens) [compound 136]
++++ (>=75% = ++++)	148 (SYGTVSQIF; listed as Homo sapiens) [compound 148]
++++ (>=75% = ++++)	296 (SYQVIFQHF; listed as Homo sapiens) [compound 296]
+++ (50%-75% = +++)	179 (TYIPVGLGRLL; listed as Homo sapiens) [compound 179]
++++ (>=75% = ++++)	274 (KQLDIANYELF; listed as Homo sapiens) [compound 274]
+++ (50%-75% = +++)	194 (VYQSLSNSL; listed as Homo sapiens) [compound 194]
++++ (>=75% = ++++)	135 (VYEAMVPLF; listed as Homo sapiens) [compound 135]
+++ (50%-75% = +++)	285 (VYVGDALLHAI; listed as Homo sapiens) [compound 285]
+++ (50%-75% = +++)	282 (NYLVDPVTI; listed as Homo sapiens) [compound 282]

Peptide exchange	Substance
+++ (50%-75% = +++)	312 (SYTSVLSRL; listed as Homo sapiens) [compound 312]
++++ (>=75% = ++++)	357 (QFITSTNTF; listed as Homo sapiens) [compound 357]
++ (20%-49% = ++)	213 (SYAPPSEDLFL; listed as Homo sapiens) [compound 213]
++++ (>=75% = ++++)	276 (QYLDVLHAL; listed as Homo sapiens) [compound 276]
++++ (>=75% = ++++)	120 (GYIEHFSLW; listed as Homo sapiens) [compound 120]
+++ (50%-75% = +++)	102 (VYPFENFEF; listed as Homo sapiens) [compound 102]
+++ (50%-75% = +++)	318 (TYSNSAFQYF; listed as Homo sapiens) [compound 318]
+++ (50%-75% = +++)	191 (TYPDGTYTGRIF; listed as Homo sapiens) [compound 191]
+++ (50%-75% = +++)	306 (VYPAEQPQI; listed as Homo sapiens) [compound 306]
+++ (50%-75% = +++)	370 (RFIGIPNQF; listed as Homo sapiens) [compound 370]
++++ (>=75% = ++++)	217 (IYISNSIYF; listed as Homo sapiens) [compound 217]
++++ (>=75% = ++++)	248 (AFPTFSVQL; listed as Homo sapiens) [compound 248]
++++ (>=75% = ++++)	99 (QYILAVPVL; listed as Homo sapiens) [compound 99]
++++ (>=75% = ++++)	206 (NYLDVATFL; listed as Homo sapiens) [compound 206]
+++ (50%-75% = +++)	270 (YYSQESKVLYL; listed as Homo sapiens) [compound 270]
+++ (50%-75% = +++)	360 (VFSPDGHLF; listed as Homo sapiens) [compound 360]
++++ (>=75% = ++++)	114 (QYLDGTWSL; listed as Homo sapiens) [compound 114]
+++ (50%-75% = +++)	364 (KYLNENQLSQL; listed as Homo sapiens) [compound 364]
++++ (>=75% = ++++)	298 (AYKSEVVYF; listed as Homo sapiens) [compound 298]
+++ (50%-75% = +++)	219 (SYLKAVFNL; listed as Homo sapiens) [compound 219]

Peptide exchange	Substance
++++ (>=75% = ++++)	301 (KFDDVTMLF; listed as Homo sapiens) [compound 301]
+++ (50%-75% = +++)	113 (IYSFHTLSF; listed as Homo sapiens) [compound 113]
+++ (50%-75% = +++)	352 (QYGGDLTNTF; listed as Homo sapiens) [compound 352]
+++ (50%-75% = +++)	303 (LYSVIKEDF; listed as Homo sapiens) [compound 303]
+++ (50%-75% = +++)	108 (PYLVVIHTL; listed as Homo sapiens) [compound 108]
++++ (>=75% = ++++)	211 (VFKSEGAYF; listed as Homo sapiens) [compound 211]
++ (20%-49% = ++)	138 (VYNAVSTSF; listed as Homo sapiens) [compound 138]
+++ (50%-75% = +++)	253 (IYGFFNENF; listed as Homo sapiens) [compound 253]
+++ (50%-75% = +++)	247 (SFTKTSPNF; listed as Homo sapiens) [compound 247]
++++ (>=75% = ++++)	109 (LFITGGQFF; listed as Homo sapiens) [compound 109]
++++ (>=75% = ++++)	182 (AYAQLGYLLF; listed as Homo sapiens) [compound 182]
++++ (>=75% = ++++)	153 (VYVPFGGKSMITF; listed as Homo sapiens) [compound 153]
+++ (50%-75% = +++)	385 (QYIEELQKF; listed as Homo sapiens) [compound 385]
+++ (50%-75% = +++)	201 (GYNPNRVFF; listed as Homo sapiens) [compound 201]
++++ (>=75% = ++++)	220 (SYSEIKDFL; listed as Homo sapiens) [compound 220]
+++ (50%-75% = +++)	388 (IYGEKTYAF; listed as Homo sapiens) [compound 388]
+++ (50%-75% = +++)	351 (IFHEVPLKF; listed as Homo sapiens) [compound 351]
+++ (50%-75% = +++)	255 (VYQKIILKF; listed as Homo sapiens) [compound 255]
